Measurements: US20200131669A1, “CYCLIC PEPTIDE COMPOUND HAVING HIGH MEMBRANE PERMEABILITY, AND LIBRARY CONTAINING SAME” (Chugai Seiyaku Kabushiki Kaisha, priority 2017, published 2020)
Starred links: 1 amine or outer side, 2 acyl side, 3 side chain; linkers in the order of their positions; H or OH if unused. Positions of bridges follow the written chain, without caps; N, C: chain ends. Non-standard residues stand in square brackets, D forms with d. Residues, ends and D or L forms follow the SMILES beside them. ξ: configuration not given here. *: point of attachment. NMeAbu(3,3-F2-piperidino) = CN[C@@H](CCN1CCCC(F)(F)C1)C(=O)O; Phe(4-CF3) = N[C@@H](Cc1ccc(C(F)(F)F)cc1)C(=O)O; NMeAla(4-thiazolyl) = CN[C@@H](Cc1cscn1)C(=O)O; 3Pal(6-NMe2) = CN(C)c1ccc(C[C@H](N)C(=O)O)cn1; Phe(4-CHF2) = N[C@@H](Cc1ccc(C(F)F)cc1)C(=O)O; NMePhe(3-Cl) = CN[C@@H](Cc1cccc(Cl)c1)C(=O)O; X16 = O=C(C1CCCCC1)[C@H](CC(=O)[*:2])N[*:1]; X15 = CN([C@H](CCN1CCOCC1)C(=O)[*:2])[*:1]; NMeW = CN[C@@H](Cc1c[nH]c2ccccc12)C(=O)O; Hyp = O=C(O)[C@@H]1C[C@@H](O)CN1; NMeF = CN[C@@H](Cc1ccccc1)C(=O)O; NMeGABA = CN(CCCC(=O)[*:2])[*:1]; Butyl(3-Me,3-OH) = CC(C)(O)CC*; NMeD = CN[C@@H](CC(=O)O)C(=O)O; aThr = C[C@H](O)[C@H](N)C(=O)O; NMeL = CN[C@@H](CC(C)C)C(=O)O; dNMeL = CN[C@H](CC(C)C)C(=O)O; NMeNva = CCC[C@H](NC)C(=O)O; NMeV = CN[C@H](C(=O)O)C(C)C; NMeAbu = CC[C@H](NC)C(=O)O; NPentylGly = CCCCCNCC(=O)O; NMeA = CN[C@@H](C)C(=O)O; Piperidide = C1CCN(*)CC1; dAbu = CC[C@@H](N)C(=O)O; dNMeA = CN[C@H](C)C(=O)O; Abu = CC[C@H](N)C(=O)O; Me2NCH2CH2 = CN(C)CC*; NBuGly = CCCCNCC(=O)O; NPrGly = CCCNCC(=O)O; ξS = NC(CO)C(=O)O; Sar = CNCC(=O)O; tBu = CC(C)(C)*

Assay: Caco-2 membrane permeability, improved method as used in the following Examples (96-well, 20 to 24 h preincubation)
Format: in vitro ADME
Settings: human, Caco-2, Caco-2
Method in brief: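 Caco-2 monolayers were grown three weeks and preincubated 20–24 h at 37 °C with compound in DMEM+FaSSIF (1% DMSO) apically. The assay then used compound in FaSSIF/HBSS (1% DMSO, pH 6.0) apically and HBSS with 4% BSA (pH 7.4) basally. Basal samples were taken at 180 min for LC/MS, and Papp (cm/sec) was calculated.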

Row | Structure (SMILES) | Papp A→B at 180 min [×10⁻⁶ cm/s]
1 | CCCCN1CC(=O)N(C)[C@H](CCN2CCOCC2)C(=O)N[C@H](C(=O)N2CCCCC2)CC(=O)N(C)[C@@H](C)C(=O)N[C@@H](CC(C)C)C(=O)N(C)[C@@H](CC(C)C)C(=O)N(C)[C@@H](Cc2ccccc2)C(=O)N[C@@H](CC(C)C)C(=O)N(C)[C@@H](Cc2ccccc2)C(=O)N(C)[C@@H](CC(C)C)C(=O)N[C@@H]([C@@H](C)O)C1=O [pd454] ([NMeA]L[NMeL][NMeF]L[NMeF][NMeL]T[NBuGly][X15]D-Piperidide; lactam N-11) | 1.2
2 | CCCCCN1CC(=O)N[C@@H]([C@@H](C)O)C(=O)N(C)CC(=O)N(C)[C@@H](CC(C)C)C(=O)N[C@H](C(=O)N2CCCCC2)CC(=O)N(C)[C@@H](CC)C(=O)N[C@@H](CC(C)C)C(=O)N(C)[C@@H](CC(C)C)C(=O)N(C)[C@@H](Cc2ccccc2)C(=O)N[C@@H](CC)C(=O)N(C)[C@@H](Cc2ccccc2)C1=O [pd408] ([NMeAbu]L[NMeL][NMeF][Abu][NMeF][NPentylGly]T[Sar][NMeL]D-Piperidide; lactam N-11) | 1.8
3 | CCCCN1CC(=O)N(C)[C@@H](C)C(=O)N[C@H](C(=O)N2CCCCC2)CC(=O)N(C)[C@@H](C(C)C)C(=O)N[C@@H](CC(C)C)C(=O)N(C)[C@@H](CC(C)C)C(=O)N(C)[C@@H](Cc2cccc(Cl)c2)C(=O)N[C@@H](Cc2ccc(N(C)C)nc2)C(=O)N(C)[C@@H](C)C(=O)N(C)[C@@H](CC(C)C)C(=O)N[C@@H]([C@@H](C)O)C1=O [pd399] ([NMeV]L[NMeL][NMePhe(3-Cl)][3Pal(6-NMe2)][NMeA][NMeL]T[NBuGly][NMeA]D-Piperidide; lactam N-11) | 1.5
4 | CCCN1CC(=O)N(C)[C@@H](C(C)C)C(=O)N[C@H](C(=O)N2CCCCC2)CC(=O)N(C)[C@@H](C)C(=O)N[C@@H](CC(C)C)C(=O)N(C)[C@@H](CC(C)C)C(=O)N(C)[C@@H](Cc2ccccc2)C(=O)NC(COCCN(C)C)C(=O)N(C)[C@@H](Cc2ccccc2)C(=O)N(C)[C@@H](CC(C)C)C(=O)N[C@@H]([C@@H](C)O)C1=O (stereo partly drawn) [pd57] ([NMeA]L[NMeL][NMeF][ξS](Me2NCH2CH2)[NMeF][NMeL]T[NPrGly][NMeV]D-Piperidide; lactam N-11) | 0.12
5 | CC[C@H](C)[C@@H]1NC(=O)[C@H](CC(C)C)N(C)C(=O)CN(C)C(=O)C[C@@H](C(=O)N2CCCCC2)NC(=O)[C@H](C(C)C)N(C)C(=O)[C@H](Cc2ccc(C(F)F)cc2)NC(=O)[C@H](CC(C)C)N(C)C(=O)[C@H](Cc2ccccc2)N(C)C(=O)CN(C)C(=O)[C@H]([C@@H](C)O)NC(=O)[C@H](CC(C)C)N(C)C1=O [pd475] ([Sar][NMeL]I[NMeL]T[Sar][NMeF][NMeL][Phe(4-CHF2)][NMeV]D-Piperidide; lactam N-11) | 4.2
6 | CCO[C@@H]1C[C@H]2C(=O)N[C@@H](Cc3ccccc3)C(=O)N(C)[C@@H](CC(C)C)C(=O)N[C@H](C(=O)N3CCCCC3)CC(=O)N[C@H](CC)C(=O)N(C)[C@@H](CC(C)C)C(=O)N[C@@H](COC(C)(C)C)C(=O)N(C)[C@@H](CC(C)C)C(=O)N[C@@H](CC(C)C)C(=O)N(C)[C@@H](CC(C)C)C(=O)N[C@@H]([C@@H](C)O)C(=O)N2C1 [pd375] ([dAbu][NMeL]S(tBu)[NMeL]L[NMeL]T[Hyp](Et)F[NMeL]D-Piperidide; lactam N-11) | 2.9
7 | CC[C@H](C)[C@@H]1NC(=O)[C@H](C(C)C)N(C)C(=O)CCCN(C)C(=O)C[C@@H](C(=O)N2CCCCC2)NC(=O)[C@H](CC(C)C)N(C)C(=O)[C@H](CC(C)C)N(C)C(=O)[C@H]([C@@H](C)O)NC(=O)[C@H](CC(C)C)N(C)C(=O)[C@H](COCCC(C)(C)O)NC(=O)[C@H](Cc2cccc(Cl)c2)N(C)C(=O)[C@H](Cc2ccccc2)N(C)C1=O [pd435] ([NMeGABA][NMeV]I[NMeF][NMePhe(3-Cl)]S(Butyl(3-Me,3-OH))[NMeL]T[NMeL][NMeL]D-Piperidide; lactam N-11) | 1.4
8 | CC(C)C[C@@H]1NC(=O)[C@H](Cc2ccccc2)N(C)C(=O)[C@H](Cc2ccccc2)N(C)C(=O)[C@H](CC(C)C)NC(=O)[C@H](CC(C)C)N(C)C(=O)CCCN(C)C(=O)C[C@@H](C(=O)N2CCCCC2)NC(=O)[C@H](C)N(C)C(=O)[C@H](CCN2CCCC(F)(F)C2)N(C)C(=O)[C@H]([C@@H](C)O)NC(=O)[C@H](CC(C)C)N(C)C1=O [pd390] ([NMeGABA][NMeL]L[NMeF][NMeF]L[NMeL]T[NMeAbu(3,3-F2-piperidino)][NMeA]D-Piperidide; lactam N-11) | 2
9 | CCC[C@H]1C(=O)N[C@@H](CC(C)C)C(=O)N(C)[C@@H](CC(C)C)C(=O)N[C@@H]([C@@H](C)O)C(=O)N2CCC[C@H]2C(=O)N(C)[C@@H](CC(C)C)C(=O)N[C@@H]([C@@H](C)CC)C(=O)N(C)[C@@H](CC(C)C)C(=O)N2C[C@H](OCC)C[C@H]2C(=O)N[C@H](C(=O)N2CCCCC2)CC(=O)N(C)[C@H](CC(C)C)C(=O)N1C [pd382] ([dNMeL][NMeNva]L[NMeL]TP[NMeL]I[NMeL][Hyp](Et)D-Piperidide; lactam N-11) | 4.8
10 | CCCN1CC(=O)N(C)[C@@H](CC(C)C)C(=O)N[C@@H](COCCN(C)C)C(=O)N(C)[C@@H](Cc2ccccc2)C(=O)N(C)[C@@H](C(C)C)C(=O)N[C@H](C(=O)N2CCCCC2)CC(=O)N[C@H](C(C)C)C(=O)N(C)[C@@H](Cc2ccccc2)C(=O)N[C@@H](CC(C)C)C(=O)N(C)[C@@H](CC(C)C)C(=O)N[C@@H]([C@@H](C)O)C1=O [pd52] ([dV][NMeF]L[NMeL]T[NPrGly][NMeL]S(Me2NCH2CH2)[NMeF][NMeV]D-Piperidide; lactam N-11) | 0.12

Same assay, conditions: human, Caco-2, Caco-2 (cm/sec)

Row | Structure (SMILES) | Papp A→B at 180 min [×10⁻⁶ cm/s]
11 | CC(C)C[C@H]1C(=O)N[C@@H](COC(C)(C)C)C(=O)N(C)[C@@H](Cc2ccccc2)C(=O)N(C)[C@@H](CC(C)C)C(=O)N[C@H](C(=O)N2CCCCC2)CC(=O)N2CCC[C@H]2C(=O)N(C)[C@@H](Cc2cccc(Cl)c2)C(=O)N[C@@H](C(C)C)C(=O)N(C)[C@@H](C(C)C)C(=O)N[C@@H]([C@@H](C)O)C(=O)N(C)CC(=O)N1C [pd156] (P[NMePhe(3-Cl)]V[NMeV]T[Sar][NMeL]S(tBu)[NMeF][NMeL]D-Piperidide; lactam N-11) | 2.9
12 | CC(C)C[C@H]1C(=O)N(C)[C@@H](Cc2c[nH]c3ccccc23)C(=O)N(C)[C@@H](Cc2ccccc2)C(=O)N[C@@H]([C@@H](C)O)C(=O)N(C)[C@@H](C)C(=O)N(C)[C@@H](CC(C)C)C(=O)N[C@H](C(=O)N2CCCCC2)CC(=O)N(C)[C@@H](C)C(=O)N(C)[C@@H](CC(C)C)C(=O)N(C)[C@@H](CC(C)C)C(=O)N[C@@H](C(C)C)C(=O)N1C [pd109] ([NMeA][NMeL][NMeL]V[NMeL][NMeW][NMeF]T[NMeA][NMeL]D-Piperidide; lactam N-11) | 0.0092
13 | CC(C)C[C@@H]1NC(=O)[C@H](Cc2ccccc2)N(C)C(=O)[C@H](C)NC(=O)C[C@@H](C(=O)N2CCCCC2)N(C)C(=O)[C@H](Cc2ccccc2)N(C)C(=O)[C@H](Cc2ccccc2)N(C)C(=O)[C@H](COC(C)(C)C)NC(=O)[C@H](CC(C)C)N(C)C(=O)CN(C)C(=O)[C@H]([C@@H](C)O)NC(=O)[C@H](CC(C)C)N(C)C1=O [pd209] (A[NMeF]L[NMeL]T[Sar][NMeL]S(tBu)[NMeF][NMeF][NMeD]-Piperidide; lactam N-11) | 1.7
14 | CC(C)C[C@@H]1NC(=O)[C@H](CC(C)C)N(C)C(=O)[C@H](C(C)C)NC(=O)C[C@@H](C(=O)N2CCCCC2)NC(=O)[C@H](CC(C)C)N(C)C(=O)[C@H](Cc2ccccc2)N(C)C(=O)[C@H]([C@@H](C)O)NC(=O)[C@H](Cc2ccc(C(F)(F)F)cc2)NC(=O)[C@H](C)N(C)C1=O [pd145] (V[NMeL]L[NMeA][Phe(4-CF3)]T[NMeF][NMeL]D-Piperidide; lactam N-9) | 1.2
15 | CC(C)C[C@@H]1NC(=O)[C@H](CC(C)C)N(C)C(=O)C[C@@H](C(=O)N2CCCCC2)NC(=O)[C@H](CC(C)C)N(C)C(=O)CN(C)C(=O)[C@H]([C@@H](C)O)NC(=O)[C@H](Cc2cscn2)N(C)C(=O)[C@H](Cc2ccccc2)N(C)C(=O)[C@H](Cc2ccccc2)NC(=O)[C@H](Cc2ccccc2)N(C)C(=O)[C@H](CC(C)C)N(C)C1=O [pd228] ([NMeL]L[NMeL][NMeF]F[NMeF][NMeAla(4-thiazolyl)]T[Sar][NMeL]D-Piperidide; lactam N-11) | 0.58
16 | CC(C)C[C@H]1C(=O)N[C@@H](C(C)C)C(=O)N(C)[C@@H](Cc2ccccc2)C(=O)N(C)[C@@H](Cc2ccccc2)C(=O)N[C@@H](COC(C)(C)C)C(=O)N(C)[C@@H](CC(C)C)C(=O)N[C@@H]([C@@H](C)O)C(=O)N(C)[C@@H](Cc2ccccc2)C(=O)N(C)[C@@H](CC(C)C)C(=O)N[C@H](C(=O)C2CCCCC2)CC(=O)N(C)CCCC(=O)N1C [pd216] (cyclo([NMeF][NMeF]S(tBu)[NMeL]T[NMeF][NMeL][X16][NMeGABA][NMeL]V)) | 1.2

Same assay, conditions: human, Caco-2; read-out: Caco-2

Row | Structure (SMILES) | Papp A→B at 180 min [×10⁻⁶ cm/s]
17 | CC[C@H](C)[C@@H]1NC(=O)[C@H](CC(C)C)N(C)C(=O)[C@H](C)N(C)C(=O)[C@H]([C@H](C)O)NC(=O)[C@H](Cc2ccccc2)N(C)C(=O)[C@H](C)N(C)C(=O)[C@@H](C)N(C)C(=O)C[C@@H](C(=O)N(C)[C@@H](Cc2ccccc2)C(=O)N(C)[C@@H](Cc2ccccc2)C(=O)N[C@@H](C)C(=O)N2CCCCC2)NC(=O)[C@H](C(C)C)N(C)C(=O)[C@H](CC(C)C)N(C)C1=O [pd201] ([dNMeA][NMeA][NMeF][aThr][NMeA][NMeL]I[NMeL][NMeV]D[NMeF][NMeF]A-Piperidide; lactam N-10) | 2.3
